Reference: patent US6090829A, “Method for treating excessive aggression” (Eli Lilly and Company, priority 1998, dated 2000)

Legend:
D2 receptor subtype = assay: pharmacological studies at the D2 receptor subtype
[1] = molecular target: 3H-oxotremorine-M binding (muscarinic receptors); assay: 3H-oxotremorine-M binding inhibition; settings: radioligand 3H-oxotremorine-M; read-out: inhibition constant (Ki) for binding of 3H-oxotremorine-M
m4 receptors = assay: cAMP formation in CHO m4 cells treated with pertussis toxin; format: cell-based
Text: Muscarinic agonists stimulate the formation of cAMP up to 10 fold in CHO m4 cells treated with pertussisi toxin and the pharmacology is consistent with the mediation by m4 receptors. Eckols K. Soc. Neurosci Abstr., 21:2040 (1995).

For CCCCCCOc1nsnc1C1=CCCN(C)C1 [xanomeline, 3-(4-hexyloxy-1,2,5-thiadiazol-3-yl)-1,2,5,6-tetrahydro-1-methylpyridine], the “activity at the D2 receptor subtype” value (D2 receptor subtype) was “active”, the Ki [1] was 2 nM and the “stimulation of the formation of cAMP” value (m4 receptors) was “efficaciously and potently stimulated the formation of cAMP”.
